Laboratory results taken from US20260294925A1, “CELL PROLIFERATION MODULATORS AND USES THEREOF” (Kumquat Biosciences Inc., priority 2023, published 2026).

How the values were obtained:
[1] = Toxicity / body weight observation in Ba/F3 allograft mice; type: in vivo, mouse; settings: Ba/F3 T315I allograft NOD/SCID mice, oral gavage, single agents and combinations
Source text: Mice were maintained under specific pathogen-free conditions, and food and water were provided ad libitum. A mouse Ba/F3 cell line that expresses a p210 […] fusion and T315I mutation was implanted subcutaneously (1×10^6 cells per mouse) into the right flank of female 6- to 8-week-old NOD/SCID mice. Mice were monitored daily, weighed up to three times weekly, and caliper measurements began when tumors became visible. Animals were randomly assigned to treatment groups as indicated in FIG. 2 by an algorithm that assigns animals to groups to achieve best case distributions of mean tumor size with lowest possible standard deviation. Tumor volume was calculated by measuring two perpendicular diameters using the following formula: (L×w^2)/2, in which L and w refer to the length and width of the tumor diameter, respectively. When tumors reached an average size of ~100 mm^3, mice were randomized and treated with vehicle, a SOS1 inhibitor of the present disclosure (Compound A), asciminib, ponatinib, Compound A and asciminib, or Compound A and ponatinib by oral gavage at the indicated dose and schedule.

KCL22-r xenograft = experiment: KCL22-r (dasatinib-refractory) xenograft study (FIG. 7); type: in vivo, mouse; settings: dasatinib monotherapy
Protocol: Mice were maintained under specific pathogen-free conditions, and food and water were provided ad libitum. Female 6- to 8-week-old athymic BALB/c nude (NCr) nu/nu mice were used to inoculate Ph+ CML cell lines. For example, KCL22-s cells (5×10^6) were harvested on the day of use and injected in growth-factor-reduced Matrigel/PBS (50% final concentration in 100 μL). One flank was inoculated subcutaneously per mouse. Mice were monitored daily, weighed twice weekly, and caliper measurements began when tumors became visible. Animals were randomly assigned to treatment groups as indicated in FIG. 1 by an algorithm that assigns animals to groups to achieve best case distributions of mean tumor size with lowest possible standard deviation. Tumor volume was calculated by measuring two perpendicular diameters using the following formula: (L×w^2)/2, in which L and w refer to the length and width of the tumor diameter, respectively. When tumors reached an average size of 100 mm^3, mice were randomized and treated with vehicle (20% Dexolve) or indicated compounds using a daily or twice daily schedule by oral gavage. Results are expressed as mean and […]. […] Combination treatment with dasatinib renders more than 90% complete responses. […]

SMILES | toxicity or body weight loss [1] | response of KCL22-r model to dasatinib (KCL22-r xenograft)
Cc1ccc(C(=O)Nc2ccc(CN3CCN(C)CC3)c(C(F)(F)F)c2)cc1C#Cc1cnc2cccnn12 [ponatinib] | No apparent toxicity or body weight loss was observed | –
O=C(Nc1ccc(OC(F)(F)Cl)cc1)c1cnc(N2CC[C@@H](O)C2)c(-c2ccn[nH]2)c1 [asciminib] | No apparent toxicity or body weight loss was observed | –
Cc1nc(Nc2ncc(C(=O)Nc3c(C)cccc3Cl)s2)cc(N2CCN(CCO)CC2)n1 [dasatinib] | – | dasatinib-refractory tumor
